The text below walks through data of paper PMC10572743 (International Journal of Molecular Sciences, 2023).

Read-outs that look alike come from different tables or passages of the source. Marks after values point to notes of the source that are not given here.

For data set [1], the system named is TNF-α production in PBMC stimulated with LPS. The following applies: previous research; read-out: PMBC-LPS/TNFα; cited from earlier work.
Data set [2] shares this test system. Briefly: Inhibition of TNF-α production in PBMCs stimulated with LPS (ELISA). Format: cell-based. The following applies: Homo sapiens, average of 2 independent experiments (donors), LPS 1 ng/mL, 24 h, read-out: IC50/μM (av.) PMBC-LPS/TNF-α. The procedure:
PBMC isolation. Human peripheral blood mononuclear cells (PBMCs) were isolated from buffy coats obtained from healthy adult volunteers. The buffy coats were diluted with sterile PBS and layered over Lymphoprep (Axis-Shield Diagnostics, Dundee, UK). Tubes were centrifuged for 35 min at 400× g (RT; acceleration and break turned off). After centrifugation, the mononuclear ring was collected, transferred into a new 50 mL tube, and washed thrice with sterile PBS. The remaining erythrocytes were lysed with an isotonic solution of ammonium chloride (150 mM; Kemika, Zagreb, Croatia).
Treatment and stimulation of human PBMCs. Immediately after isolation, 200,000 PBMCs were seeded per well of a 96-well plate. Compounds were dissolved in 100% dimethyl sulfoxide (DMSO, Sigma, Darmstadt, Germany), and serial dilutions in DMSO were prepared and added to cells, with starting concentration for test compounds 100 µM or 1 µM for reference dexamethasone. […] Plates were incubated for 24 h at 37 °C, 5% CO2, followed by the collection of supernatants for measurement of TNF-α and cell viability assessment.
Enzyme-linked immunosorbent assay (ELISA) and cytotoxicity analysis. TNFα concentration in PBMC supernatants was measured using ELISA assay, using antibodies obtained from BD Pharmingen (San Diego, CA, USA) and recombinant human TNFα protein (standard) from R&D Systems (Minneapolis, MN, USA). Lumitrac 600 384-well plates (Greiner Bio-One, Kremsmünster, Austria) were coated overnight with 1 µg/mL of TNFα capture antibody diluted in phosphate-buffered saline (PBS, Thermo Fisher Scientific, Waltham, MA, USA), followed by a washing step and blocking with 5% sucrose in assay diluent (1% bovine serum albumin (BSA; Sigma, Darmstadt, Germany) in PBS) for 4 h at RT. After the blocking step, the plates were washed, and samples/standards were added to the plates. After overnight incubation at 4 °C, detection antibodies diluted in assay diluent to a final concentration of 250 ng/mL were added. Following incubation for 2 h at RT, plates were washed, and streptavidin-HRP (Thermo Fisher Scientific, Waltham, MA, USA) solution was added (final concentration 500 ng/mL, prepared in assay diluent). Plates were incubated for 20 min at RT in the dark and washed, followed by adding Luminol substrate (Sigma, Darmstadt, Germany). […] To evaluate cell viability, Cell Titer Glo reagent was used (Promega, Madison, WI, USA) according to the manufacturer’s instructions.
Data analysis. For ELISA, the blank was subtracted from measured RLU values, and TNFα concentrations in samples were interpolated from the standard curve. QC parameters for each plate were calculated from raw data. […] For viability assessment, the average luminescence value was calculated from all trigger vehicle samples, and the percentage of vehicle value was calculated for all samples. The compound effect was considered cytotoxic if reduction from a vehicle was ≥20%, and these concentrations were excluded from further analysis. IC50 values of tested compounds were determined in GraphPad Prism 9 software using nonlinear regression curve fit (four parameters, with variable slope).
In general terms: In an ELISA, binding on a coated surface is turned into a signal by an enzyme label.

A further data set has as its system PBMCs. Briefly: Cell viability of PBMCs after incubation with compounds (ATP, Cell Titer Glo). It is filed as cell-based. The procedure:
The potential to act anti-inflammatory was evaluated for 1,2,3-triazole derivatives 1–31 in vitro in an assay where PBMCs from 2 healthy donors were stimulated with LPS to induce the immune response. As a measurement of response, the pro-inflammatory cytokine TNF-α was determined. […] […].
Treatment and stimulation of human PBMCs. Immediately after isolation, 200,000 PBMCs were seeded per well of a 96-well plate. Compounds were dissolved in 100% dimethyl sulfoxide (DMSO, Sigma, Darmstadt, Germany), and serial dilutions in DMSO were prepared and added to cells, with starting concentration for test compounds 100 µM or 1 µM for reference dexamethasone. After pre-incubation for 1h with the compounds, lipopolysaccharide (LPS) from E. coli 0111:B4 (Sigma, Darmstadt, Germany) was added to cells at 1 ng/mL final concentration. Plates were incubated for 24 h at 37 °C, 5% CO2, followed by the collection of supernatants for measurement of TNF-α and cell viability assessment.
Enzyme-linked immunosorbent assay (ELISA) and cytotoxicity analysis. TNFα concentration in PBMC supernatants was measured using ELISA assay, using antibodies obtained from BD Pharmingen (San Diego, CA, USA) and recombinant human TNFα protein (standard) from R&D Systems (Minneapolis, MN, USA). Lumitrac 600 384-well plates (Greiner Bio-One, Kremsmünster, Austria) were coated overnight with 1 µg/mL of TNFα capture antibody diluted in phosphate-buffered saline (PBS, Thermo Fisher Scientific, Waltham, MA, USA), followed by a washing step and blocking with 5% sucrose in assay diluent (1% bovine serum albumin (BSA; Sigma, Darmstadt, Germany) in PBS) for 4 h at RT. After the blocking step, the plates were washed, and samples/standards were added to the plates. […]. Following incubation for 2 h at RT, plates were washed, and streptavidin-HRP (Thermo Fisher Scientific, Waltham, MA, USA) solution was added (final concentration 500 ng/mL, prepared in assay diluent). Plates were incubated for 20 min at RT in the dark and washed, followed by adding Luminol substrate (Sigma, Darmstadt, Germany). Luminescence was measured using EnVision 2104 Multilabel Plate Reader (PerkinElmer, MA, USA), with an exposition time of 0.1 s. […]
Data analysis. For ELISA, the blank was subtracted from measured RLU values, and TNFα concentrations in samples were interpolated from the standard curve. QC parameters for each plate were calculated from raw data. […] For viability assessment, the average luminescence value was calculated from all trigger vehicle samples, and the percentage of vehicle value was calculated for all samples. […] IC50 values of tested compounds were determined in GraphPad Prism 9 software using nonlinear regression curve fit (four parameters, with variable slope).

The mark [3] stands for this setting: PBMC, ATP levels, highest tested concentration.

Regarding `C=CCn1nnc2ccc3sccc3c21` [A], in data set [1], the IC50 was 27.7 µM. For the compound `COc1ccc2ccc3nnn(CCCCO)c3c2c1` [B], the IC50 in data set [1] is 7.9 µM. As for `COc1ccc(Cn2nnc3ccc4ccc(OC)cc4c32)cc1` [C], in data set [1], the IC50 was 2.2 µM.

For the compound `FC(F)(F)c1ccc(Cn2nnc3ccc4sccc4c32)cc1` [Compound 19], the IC50 in data set [2] was found to be 10.2 µM. The “cell viability” value was 10.2 ** with PBMCs and “cell viability reduction” in the data set with PBMCs (setting [3]). Regarding `FC(F)(F)Oc1ccc(Cn2nnc3ccc4sccc4c32)cc1` [Compound 20], the IC50 in data set [2] was determined as 8.9 µM. Further, the cell viability result with PBMCs (setting [3]) is listed as “cell viability reduction”. Turning to `FC(F)(F)c1ccc(Cn2nnc3c2-c2ccsc2CC3)cc1` [Compound 26], the IC50 in data set [2] was determined as 9.4 µM. For the same compound, in the data set with PBMCs (setting [3]), the cell viability result was “cell viability reduction”.
